Test results reported in patent publication US10689354B2, “Aminoazole derivative” (Teijin Pharma Limited, priority 2015, dated 2020).

target: T1, androgen receptor (AR-LBD) (Rattus norvegicus, UniProt P15207); test: Evaluation of androgen receptor affinity (PolarScreen Androgen Receptor Competitor Assay Kit, Red; fluorescence polarization); conditions: 22° C. for 5 hours, relative to binding rate of 1 μM DHT, read-out: AR affinity (pEC50) (converted)
T1 construct: 5 μL of 2×AR-LBD/Fluoromone AL Red Complex contained in the kit; purchased Invitrogen
T1 sequence (P15207 651-882 limits assumed): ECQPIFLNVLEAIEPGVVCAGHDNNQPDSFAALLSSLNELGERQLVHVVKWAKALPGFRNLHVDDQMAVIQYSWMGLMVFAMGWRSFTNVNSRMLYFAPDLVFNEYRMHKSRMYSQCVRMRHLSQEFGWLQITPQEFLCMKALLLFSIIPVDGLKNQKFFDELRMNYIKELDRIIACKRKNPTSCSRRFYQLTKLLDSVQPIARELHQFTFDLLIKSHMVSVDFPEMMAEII
Procedure: Evaluation of an Androgen Receptor Affinity
To examine the interaction of a compound with an androgen receptor, evaluation was carried out in accordance with the following procedure using PolarScreen™ Androgen Receptor Competitor Assay Kit, Red (Invitrogen). To 2 wells each of a 384 well black plate was added 5 μL of the compound solution. To each well was added 5 μL of 2×AR-LBD/Fluoromone AL Red Complex contained in the kit and the samples were reacted at 22° C. for 5 hours. After 5 hours of the reaction, fluorescence polarization was measured and the affinity was evaluated. The affinity of the compound was determined by comparing to the binding rate of 1 μM of dihydrotestosterone (DHT), and quantified the logarithm value (pEC50) of reciprocal value of the effective concentration of the compound which is equal to 50% of the binding rate by applying a 4 parameter goodness-of-fit calculation.

SMILES	EC50 [nM]
Cc1sc(N(Cc2ccccc2)c2ccc(C(F)(F)F)nn2)nc1C(=O)NS(C)(=O)=O [Example 237, 2-[benzyl-[6-(trifluoromethyl)pyridazin-3-yl]amino]-5-methyl-N-methylsulfonyl-thiazole-4-carboxamide]	631
Cc1sc(N(CCc2ccccn2)Cc2ccccc2)nc1C(=O)NS(C)(=O)=O [Compound 334, 2-[benzyl-[2-(2-pyridyl)ethyl]amino]-5-methyl-N-methylsulfonyl-thiazole-4-carboxamide]	> 2000
Cc1sc(N(Cc2ccccc2C#N)c2ccc(C#N)cc2)nc1C(=O)NS(C)(=O)=O [Compound 8, 2-[4-cyano-N-[(2-cyanophenyl)methyl]anilino]-5-methyl-N-methylsulfonyl-thiazole-4-carboxamide]	> 2000
CCC(c1ccccc1)N(c1ccc(C#N)cc1)c1nc(C(=O)NS(C)(=O)=O)c(C)s1 (stereo not shown) [Compound 84, 2-[4-cyano-N-(1-phenylpropyl)anilino]-5-methyl-N-methylsulfonyl-thiazole-4-carboxamide]	> 2000
Cc1sc(N(Cc2ccccc2)c2cccc3ccccc23)nc1C(=O)NS(C)(=O)=O [Example 227, 2-[benzyl(1-naphthyl)amino]-5-methyl-N-methylsulfonyl-thiazole-4-carboxamide]	> 2000
Cc1sc(N(Cc2nccs2)c2ccc(C#N)cc2)nc1C(=O)NS(C)(=O)=O [Compound 392, 2-[4-cyano-N-(thiazol-2-ylmethyl)anilino]-5-methyl-N-methylsulfonyl-thiazole-4-carboxamide]	> 2000
COc1cccc(CN(c2ccc(C#N)cc2)c2nc(C(=O)NS(C)(=O)=O)c(Cl)s2)c1 [Example 260, 5-chloro-2-[4-cyano-N-[(3-methoxyphenyl)methyl]anilino]-N-methylsulfonyl-thiazole-4-carboxamide]	39.8
Cc1sc(N(CCn2nccc2C)Cc2ccccc2)nc1C(=O)NS(C)(=O)=O [Compound 682, 2-[benzyl-[2-(5-methylpyrazol-1-yl)ethyl]amino]-5-methyl-N-methylsulfonyl-thiazole-4-carboxamide]	> 2000
Cc1sc(N(CCc2c(Cl)cccc2Cl)Cc2ccccc2)nc1C(=O)NS(C)(=O)=O [Example 316, 2-[benzyl-[2-(2,6-dichlorophenyl)ethyl]amino]-5-methyl-N-methylsulfonyl-thiazole-4-carboxamide]	> 2000
C=CCCN(c1ccc(C#N)cc1)c1nc(C(=O)NS(C)(=O)=O)c(C)s1 [Compound 448, 2-(N-but-3-enyl-4-cyano-anilino)-5-methyl-N-methylsulfonyl-thiazole-4-carboxamide]	1260
Cc1sc(N(CCC(C)(C)C)Cc2ccccc2)nc1C(=O)NS(C)(=O)=O [Compound 686, 2-[benzyl(3,3-dimethylbutyl)amino]-5-methyl-N-methylsulfonyl-thiazole-4-carboxamide]	> 2000
Cc1sc(N(Cc2cccnc2)c2ccc(C#N)cc2)nc1C(=O)NS(C)(=O)=O [Compound 43, 2-[4-cyano-N-(3-pyridylmethyl)anilino]-5-methyl-N-methylsulfonyl-thiazole-4-carboxamide]	> 2000
Cc1sc(N(CC(C)(C)C)c2ccc(C#N)cc2)nc1C(=O)NS(C)(=O)=O [Compound 74, 2-[4-cyano-N-(2,2-dimethylpropyl)anilino]-5-methyl-N-methylsulfonyl-thiazole-4-carboxamide]	> 2000
Cc1sc(N(CCc2ccc(C(=O)OC(C)(C)C)cc2)Cc2ccccc2)nc1C(=O)NS(C)(=O)=O [Compound 327, tert-butyl 4-[2-[benzyl-[5-methyl-4-(methylsulfonylcarbamoyl)thiazol-2-yl]amino]ethyl]benzoate]	> 2000
Cc1sc(N(C[C@H]2CCC[C@@H](CO)C2)c2ccc(C#N)cc2)nc1C(=O)NS(C)(=O)=O (racemic) [Compound 347, 2-[4-cyano-N-[[cis-3-(hydroxymethyl)cyclohexyl]methyl]anilino]-5-methyl-N-methylsulfonyl-thiazole-4-carboxamide]	1260
Cc1sc(N(CC(=O)N(C)c2ccccc2)c2ccc(C#N)cc2)nc1C(=O)NS(C)(=O)=O [Compound 426, 2-(4-cyano-N-[2-(N-methylanilino)-2-oxo-ethyl]anilino)-5-methyl-N-methylsulfonyl-thiazole-4-carboxamide]	> 2000
Cc1sc(N(CC(=O)N2CCCCC2)c2ccc(C#N)cc2)nc1C(=O)NS(C)(=O)=O [Compound 72, 2-(4-cyano-N-[2-oxo-2-(1-piperidyl)ethyl]anilino)-5-methyl-N-methylsulfonyl-thiazole-4-carboxamide]	> 2000
CS(=O)(=O)NC(=O)c1nc(N(Cc2ccccc2)c2ccc(C#N)cc2)sc1-c1ccccc1 [Compound 601, 2-(N-benzyl-4-cyano-anilino)-N-methylsulfonyl-5-phenyl-thiazole-4-carboxamide]	> 2000
Cc1sc(N(CC(=O)NC2CC2)c2ccc(C#N)cc2)nc1C(=O)NS(C)(=O)=O [Compound 412, 2-(4-cyano-N-[2-(cyclopropylamino)-2-oxo-ethyl]anilino)-5-methyl-N-methylsulfonyl-thiazole-4-carboxamide]	> 2000
Cc1sc(N(Cc2cccc3nonc23)c2ccc(C#N)cc2)nc1C(=O)NS(C)(=O)=O [Compound 92, 2-[N-(2,1,3-benzoxadiazol-4-ylmethyl)-4-cyano-anilino]-5-methyl-N-methylsulfonyl-thiazole-4-carboxamide]	158
Cc1sc(N(CC[C@@H]2CC[C@@H](O)C2)c2ccc(C#N)cc2)nc1C(=O)NS(C)(=O)=O (racemic) [Compound 459, 2-[4-cyano-N-[2-[trans-3-hydroxycyclopentyl]ethyl]anilino]-5-methyl-N-methylsulfonyl-thiazole-4-carboxamide]	1260
Cc1sc(N(Cc2ccccc2)c2cccc(Cl)c2)nc1C(=O)NS(C)(=O)=O [Compound 32, 2-(N-benzyl-3-chloro-anilino)-5-methyl-N-methylsulfonyl-thiazole-4-carboxamide]	> 2000

Now from value to compound:

EC50 [nM]	SMILES
794	Cc1sc(N(C[C@@H]2CCCC[C@H]2O)c2ccc(C#N)cc2)nc1C(=O)NS(C)(=O)=O (racemic) [Compound 411, 2-[4-cyano-N-[[trans-2-hydroxycyclohexyl]methyl]anilino]-5-methyl-N-methylsulfonyl-thiazole-4-carboxamide]
> 2000	Cc1sc(N(Cc2ccccc2)c2ccc3ccn(C)c3c2)nc1C(=O)NS(C)(=O)=O [Compound 746, 2-[benzyl-(1-methylindol-6-yl)amino]-5-methyl-N-methylsulfonyl-thiazole-4-carboxamide]
> 2000	Cc1sc(N(CCc2ccc(C#N)cc2)CC2CCCCC2)nc1C(=O)NS(=O)(=O)Cc1cccc(F)c1 [Compound 720, 2-[2-(4-cyanophenyl)ethyl-(cyclohexylmethyl)amino]-N-[(3-fluorophenyl)methylsulfonyl]-5-methyl-thiazole-4-carboxamide]
794	CCS(=O)(=O)NC(=O)c1nc(N(CCc2ccc(Cl)cc2)CC2CCCCC2)sc1C [Compound 698, 2-[2-(4-chlorophenyl)ethyl-(cyclohexylmethyl)amino]-N-ethylsulfonyl-5-methyl-thiazole-4-carboxamide]
> 2000	Cc1sc(N(Cc2ccccc2)C(C)Cc2ccccc2)nc1C(=O)NS(C)(=O)=O (stereo not shown) [Compound 674, 2-[benzyl-(1-methyl-2-phenyl-ethyl)amino]-5-methyl-N-methylsulfonyl-thiazole-4-carboxamide]
> 2000	Cc1sc(N(CC(=O)c2ccccc2)c2ccc(C#N)cc2)nc1C(=O)NS(C)(=O)=O [Compound 434, 2-(4-cyano-N-phenacyl-anilino)-5-methyl-N-methylsulfonyl-thiazole-4-carboxamide]
794	Cc1sc(N(Cc2ccccc2)c2ccc(C#N)cc2)nc1C(=O)NS(=O)(=O)c1cccnc1 [Compound 381, 2-(N-benzyl-4-cyano-anilino)-5-methyl-N-(3-pyridylsulfonyl)thiazole-4-carboxamide]
> 2000	Cc1sc(N(Cc2ccccc2)c2ccccc2Cl)nc1C(=O)NS(C)(=O)=O [Compound 33, 2-(N-benzyl-2-chloro-anilino)-5-methyl-N-methylsulfonyl-thiazole-4-carboxamide]
> 2000	Cc1sc(N(Cc2ccccc2)c2ccc(CCOCc3ccccc3)cc2)nc1C(=O)NS(C)(=O)=O [Example 235, 2-[N-benzyl-4-(2-benzyloxyethyl)anilino]-5-methyl-N-methylsulfonyl-thiazole-4-carboxamide]
> 2000	Cc1sc(N(CC(C)C)c2ccc(C#N)cc2)nc1C(=O)NS(C)(=O)=O [Compound 73, 2-(4-cyano-N-isobutyl-anilino)-5-methyl-N-methylsulfonyl-thiazole-4-carboxamide]
398	Cc1sc(N(CCc2cccc(OC(F)(F)F)c2)Cc2ccccc2)nc1C(=O)NS(C)(=O)=O [Compound 332, 2-[benzyl-[2-[3-(trifluoromethoxy)phenyl]ethyl]amino]-5-methyl-N-methylsulfonyl-thiazole-4-carboxamide]
25.1	Cc1ccc(CN(c2ccc(C#N)cc2)c2nc(C(=O)NS(C)(=O)=O)c(Cl)s2)cc1 [Example 267, 5-chloro-2-[4-cyano-N-(p-tolylmethyl)anilino]-N-methylsulfonyl-thiazole-4-carboxamide]
